The values below come from patent publication US20250152604A1, “CONTRACEPTIVE METHODS WITH SCHEDULED BLEEDING EFFECTS” (ESTETRA SRL, priority 2022, published 2025).

The nature of this data set: Solubility description. The format is physicochemical. The conditions noted are these: for solubility in water: water (and aqueous solutions).

As to `C[C@]12CC[C@@H]3c4ccc(O)cc4CC[C@H]3[C@@H]1[C@@H](O)[C@@H](O)C2O` (stereo in doubt) [Estetrol monohydrate, estra-1,3,5 (10)-triene-3,15α, 16α, 17α-tetrol monohydrate], the solubility in water entry is recorded as “poorly soluble”. Moreover, the solubility in acetone entry (acetone) was “sparingly soluble”. The solubility in acetonitrile entry (acetonitrile) was “slightly soluble”. In addition, the solubility in ethanol entry (ethanol) is “soluble”. Where the note is “ethyl acetate”, the “solubility in ethyl acetate” value is recorded as “slightly soluble”. Moreover, for the setting “methanol”, the solubility in methanol result is listed as “soluble”.

With `C[C@]12CCC(=O)C=C1[C@@H]1C[C@@H]1[C@H]1[C@@H]3[C@@H]4C[C@@H]4[C@@]4(CCC(=O)O4)[C@@]3(C)CC[C@@H]12` [Drospirenone, reference compound], the solubility in water entry is reported as “slight solubility”.
